Results reported in US11059855B2, “Antimicrobial peptides and methods of making and using same” (priority 2017, dated 2021).
Read-outs that look alike come from different tables or passages of the source.

How the values were obtained:
[1] = Circular dichroism secondary structure (Dichroweb), peptide only; type: physicochemical; settings: 20 °C
Procedure: (§1) Dichroweb software analyzes the secondary structure of LDKA peptides from circular dichroism spectroscope. The table presents the percentage of each helix and strand structure at different temperature. The data are analyzed using CONTIN-LL method and Reference Set 4 (Optimised for 190-240 nm).
(§2) Peptide solutions (peptide concentration is 50 μM) were titrated with POPC and POPG LUVs (50, 100, 250, 500, 1000 μM) and the corresponding changes CD spectra collected. Analysis of these spectra using CD tools and Dichroweb provides an ensemble average of the changes in secondary structure in the presence of POPC and POPG LUVs (dichroweb.cryst.bbk.ac.uk), which gives a direct measure of the binding free energies for each peptide.

[2] = Circular dichroism secondary structure (Dichroweb), with POPC; type: physicochemical
Procedure: as §1, §2

[3] = Circular dichroism secondary structure (Dichroweb), with POPG; type: physicochemical
Procedure: as §1, §2

[4] = ANTS/DPX leakage assay, POPC; type: biochemical; settings: P:L = 1:1000, pH 7 phosphate buffer
Procedure: (§3) 5 mM ANTS and 12.5 mM DPX were entrapped in 0.1 μm diameter extruded vesicles with lipids. Gel filtration chromatography of Sephadex G-100 (GE Healthcare Life Sciences Inc.) was used to remove external free ANTS/DPX from LUVs with entrapped contents. […] Leakage was measured after 3 hr incubation. 10% Triton was used as the positive control to measure the maximum leakage of the vesicle. Fluorescence emission spectra were recorded using excitation wavelength (Ex: 350 nm) and emission wavelength (Em: 510 nm) for ANTS/DPX using Synergy H1 Hybrid Multi-Mode Reader.
(§4) This detects and quantifies the release of a small fluorescent dye (ANTS/DPX; MW=˜400 Da) encapsulated in LUVs after addition of library peptides. Neutral POPC LUVs serve as a simple model for mammalian membranes, while charged POPG LUVs mimic bacterial membranes enriched in anionic lipids.

[5] = ANTS/DPX leakage assay, POPG; type: biochemical; settings: P:L = 1:1000, pH 7 phosphate buffer
Procedure: as §3, §4

[6] = 3-kDa dextran macromolecule release assay, POPG; type: biochemical; settings: P:L = 1:1000, pH 7 phosphate buffer
[7] = Pore-size characterization by 3-kDa dextran release; type: biochemical; settings: ‡Large pore for PG only
From the text: Eight LDKA peptides with different lipid selectivity and pore sizes were selected from the high-throughput screen and sequenced. […] The most common mutation is L to A, occurred 13 times and in 7 out of the 8 peptides, followed by A to L, which occurred 6 times in 5 peptides, L to D which occurred 3 times in 3 peptides, and L to P that occurred once. Lysine (K) is not favorable to be shown at the position 6, 8, 10, 12, and 13, which is the non-polar face of the helical structure. […] More specifically, the analogs only induce leakage from anionic POPG vesicles have 4-5 leucines, which is less than the analogs that can porate both POPC and POPG vesicles and have 6-7 leucines in their sequences.

[8] = Membrane selectivity from high-throughput dye leakage screen; type: biochemical; settings: PC = POPC, PG = POPG
From the text: as §4

S. aureus = experiment: Bacterial minimum inhibitory concentration (MIC), S. aureus; type: cell-based, Staphylococcus aureus; settings: 75 μM maximum tested; NDA = not determinable
Procedure: (§5) Escherichia colt strain ATCC 25922, Staphylococcus aureus strain ATCC 25923, and Pseudomonas aeruginosa strain ATCC PAO1 were used in this study. Overnight cultures were subcultured to log phase (OD600=0.3-0.6) after which cell counts were determined by measuring the OD600 (OD600 1.0=1.5×10^8 CFU/mL for S. aureus, 5×10^8 CFU/mL for E. colt, and 2.04×10^8 CFU/mL for P. aeruginosa). Bacteria in minimal media mere added to serially diluted peptides and incubated for 3 hr, followed by the addition of full growth media. After overnight incubation, the optical density of the wells was recorded on a plate reader to determine whether they were sterilized (OD<0.08) or were at stationary phase growth (OD600>0.5). Intermediate values, which were rare, were considered positive for growth. Average minimum sterilizing concentrations were calculated from the lowest peptide concentration that sterilized the bacteria in each serial dilution. The samples were done in sextuplet.

[9] = tested on: methicillin-resistant Staphylococcus aureus (MRSA); type: cell-based; settings: 75 μM maximum tested; NDA = not determinable
P. aeruginosa = experiment: Bacterial minimum inhibitory concentration (MIC), P. aeruginosa; type: cell-based, Pseudomonas aeruginosa; settings: 75 μM maximum tested; NDA = not determinable
Procedure: as §5

Escherichia coli biofilm = experiment: Activity against biofilm, E. coli; type: cell-based; settings: 67-150 μM peptide, 3 hr treatment
Procedure: Selected analogues were tested with each (13A). Escherichia coli biofilm, (13B). Staphylococcus aureus biofilm, and (13C) Pseudomonas aeruginosa biofilm.
However, most of the LDKA analogues fail to treat S. aureus and P. aeruginosa biofilms. Only K7H and 7F3 are capable to reduce S. aureus biofilms by ˜50% with 100 μM peptide concentration, and none of the analogues work against P. aeruginosa biofilms (FIGS. 13a-13c).

[10] = provided by the distributor, GenScript; cited from earlier work
[11] = 3-kDa dextran macromolecule release assay, POPC; type: biochemical; settings: P:L = 1:1000, pH 7 phosphate buffer
Procedure: Several different size dextrans were prepared and labelled with both TAMRA and biotin. Conjugated dextran was entrapped in POPC LUVs as described above. External dextran was removed by incubation with immobilized streptavidin. Streptavidin labelled with an Alexa-488 fluorophore was added during the leakage experiment with the peptide as previous described.^5 The sample was then incubated for 3 hr before measuring Alexa-488 fluorescence. A control without added peptide served as the 0% leakage signal and addition of 0.05% vol. Triton X-100 was used to determine 100% leakage.

Hemolysis assay = type: cell-based, human; settings: human
Procedure: Fresh human red blood cells were obtained from Interstate Blood Bank, Inc., and thoroughly washed in PBS until the supernatant was clear. hRBC concentration was determined using a standard hemocytometer. In hemolysis assays serial dilutions of peptide were prepared, followed by the addition of 2×10^8 hRBC/mL. After incubation for 1 hr at 37° C. the cells were centrifuged and the released hemoglobin was measured by optical absorbance of the heme group (410 nm). Negative control was buffer only (0% lysis), and the positive control was 20 μM melittin and distilled water (100% lysis). The samples were done in triplicate.

[12] = tested on: ciprofloxacin-resistant E. coli
Procedure: “N.D.” means “not determined”.
Ceftazidime is active on the bacteria's cell wall and interferes with bacterial cell wall formation.^38,39 Ciprofloxacin is able to inhibit DNA gyrase, type II topoisomerase, and topoisomerase IV to separate bacterial DNA and inhibits cell division.^40 Streptomycin and gentamicin are antibiotics that can interrupt and inhibit protein synthesis.^41,42 E. coli strain ATCC 25922 cultures were grown in the presence of each of these antibiotics at elevated concentration for 10 generations.

Row | Substance | Peptide-only, Strand [1] | Peptide-POPC, Helix ([2]; 20 °C) | Peptide-POPC, Strand ([2]; 20 °C) | Peptide-POPC, Helix ([2]; 45 °C) | Peptide-POPC, Strand ([2]; 45 °C) | Peptide-POPC, Helix ([2]; 70 °C) | Peptide-POPC, Strand ([2]; 70 °C) | Peptide-POPC, Helix ([2]; 95 °C) | Peptide-POPC, Strand ([2]; 95 °C) | Peptide-POPG, Helix ([3]; 20 °C) | Peptide-POPG, Strand ([3]; 20 °C) | Peptide-POPG, Helix ([3]; 45 °C) | Peptide-POPG, Strand ([3]; 45 °C) | Peptide-POPG, Helix ([3]; 70 °C) | Peptide-POPG, Strand ([3]; 70 °C) | Peptide-POPG, Helix ([3]; 95 °C) | Peptide-POPG, Strand ([3]; 95 °C) | ANTS/DPX release, POPC [4] | ANTS/DPX release, POPG [5] | Pore size [7] | also measured
1 | H-GLADAAKLLLKAAGW-NH2 [Peptide 11D12] | 8% | 38% | 12% | 39% | 10% | 39% | 9% | 33% | 12% | 96% | 0% | 92% | 0% | 90% | 0% | 77% | 1% | 8% | 101% | Large | 3-kDa Dextran release, POPG [6]: 58%; Membrane selectivity (POPC vs POPG vesicles) [8]: PG > PC; Minimum Inhibitory Concentration, S. aureus (S. aureus): NDA; Minimum Inhibitory Concentration, MRSA [9]: NDA; Minimum Inhibitory Concentration, P. aeruginosa (P. aeruginosa): NDA; Elimination of E. coli biofilm (Escherichia coli biofilm): ~50%; Solubility, DMSO [10]: 20 mg/mL; Solubility, DPBS pH 7.1 [10]: 10 mg/mL; Solubility, Ultrapure Water [10]: 10 mg/mL
2 | H-GLLDLPKALAKALGW-NH2 [Peptide 7G6] | 10% | 49% | 10% | 56% | 6% | 47% | 10% | 30% | 20% | 86% | 2% | 87% | 2% | 82% | 3% | 75% | 3% | 48% | 105% | Small | 3-kDa Dextran release, POPG [6]: -1%; Membrane selectivity (POPC vs POPG vesicles) [8]: PG > PC; Minimum Inhibitory Concentration, S. aureus (S. aureus): NDA; Minimum Inhibitory Concentration, MRSA [9]: NDA; Minimum Inhibitory Concentration, P. aeruginosa (P. aeruginosa): NDA; Elimination of E. coli biofilm (Escherichia coli biofilm): ~50%; Solubility, DMSO [10]: 15 mg/mL; Solubility, DPBS pH 7.1 [10]: 15 mg/mL; Solubility, Ultrapure Water [10]: 10 mg/mL
3 | H-GLLDAAKLLAKAAGW-NH2 [Peptide 24F1] | 14% | 32% | 16% | 32% | 16% | 27% | 17% | 24% | 22% | 91% | 0% | 88% | 1% | 77% | 1% | 66% | 2% | 15% | 100% | Large | 3-kDa Dextran release, POPG [6]: 69%; Membrane selectivity (POPC vs POPG vesicles) [8]: PG > PC; Minimum Inhibitory Concentration, S. aureus (S. aureus): NDA; Minimum Inhibitory Concentration, MRSA [9]: NDA; Minimum Inhibitory Concentration, P. aeruginosa (P. aeruginosa): 66 µM; Elimination of E. coli biofilm (Escherichia coli biofilm): ~50%; Solubility, DMSO [10]: 15 mg/mL; Solubility, DPBS pH 7.1 [10]: 5 mg/mL; Solubility, Ultrapure Water [10]: 10 mg/mL
4 | H-GLDDLLKALLKAAGW-NH2 [Peptide 4H9] | 2% | 82% | 0% | 77% | 0% | 66% | 4% | 47% | 11% | 93% | 0% | 91% | 0% | 83% | 0% | 73% | 1% | 110% | 43% | Small | Peptide-only, Helix [1]: 63%; 3-kDa Dextran release, POPC [11]: -4%; Membrane selectivity (POPC vs POPG vesicles) [8]: PC > PG; Minimum Inhibitory Concentration, MRSA [9]: NDA; Minimum Inhibitory Concentration, P. aeruginosa (P. aeruginosa): NDA; HC50 at 1 hr (Hemolysis assay; peptide concentration lysing 50% of red blood cells, estimated using polynomial regression, read-out: Hemolysis Assay LC50): 56.6 µM; MIC, ciprofloxacin-resistant E. coli [12]: completely fail; Elimination of E. coli biofilm (Escherichia coli biofilm): ~50%; Solubility, DMSO [10]: 15 mg/mL; Solubility, DPBS pH 7.1 [10]: 10 mg/mL; Solubility, Ultrapure Water [10]: 5 mg/mL
5 | H-GLDDLAKLLLKLAGW-NH2 [Peptide 25B2] | 3% | 80% | 3% | 90% | 1% | 81% | 1% | 61% | 6% | 98% | 0% | 98% | 0% | 93% | 0% | 87% | 1% | 98% | 99% | Large‡ | Peptide-only, Helix [1]: 67%; 3-kDa Dextran release, POPC [11]: -2%; 3-kDa Dextran release, POPG [6]: 100%; Membrane selectivity (POPC vs POPG vesicles) [8]: Non-selective; Minimum Inhibitory Concentration, MRSA [9]: NDA; Minimum Inhibitory Concentration, P. aeruginosa (P. aeruginosa): NDA; HC50 at 1 hr (Hemolysis assay): 35.5 µM; MIC, ciprofloxacin-resistant E. coli [12]: completely fail; Elimination of E. coli biofilm (Escherichia coli biofilm): ~50%; Solubility, DMSO [10]: 15 mg/mL; Solubility, DPBS pH 7.1 [10]: <0.1 mg/mL; Solubility, Ultrapure Water [10]: 10 mg/mL
